Test results: ChEMBL document CHEMBL1201862, “PubChem BioAssay data set” (2004)
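A five-concentration, 48-hour dose response in 96-well plates underlies each endpoint, interpolated linearly between surrounding concentrations. GI50: concentration for 50% inhibition of growth.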 Calls of active or inactive are those of the source. Cut-off read from the data, not from the text of the source: active = GI50 up to about 1.1 µM and inactive = higher.

How the values were obtained:
Experiment in all cases: NCI-60 cell line screen, 48 h
786-0 = tested on: 786-0
EKVX = tested on: EKVX
HOP-62 = tested on: HOP-62
HT-29 = tested on: HT-29
K562 = tested on: K562
MDA-MB-231 = tested on: MDA-MB-231
MDA-N = tested on: MDA-N
NCI-H226 = tested on: NCI-H226
OVCAR-3 = tested on: OVCAR-3
OVCAR-4 = tested on: OVCAR-4
OVCAR-5 = tested on: OVCAR-5
RXF 393 = tested on: RXF 393
SF-295 = tested on: SF-295
SK-MEL-2 = tested on: SK-MEL-2
SK-MEL-5 = tested on: SK-MEL-5
SNB-19 = tested on: SNB-19
UACC-257 = tested on: UACC-257
SF-539 = tested on: SF-539
SNB-75 = tested on: SNB-75
SR = tested on: SR

Row | Compound | GI50 (786-0) | GI50 (EKVX) | GI50 (HOP-62) | GI50 (HT-29) | GI50 (K562) | GI50 (MDA-MB-231) | GI50 (MDA-N) | GI50 (NCI-H226) | GI50 (OVCAR-3) | GI50 (OVCAR-4) | GI50 (OVCAR-5) | GI50 (RXF 393) | GI50 (SF-295) | GI50 (SK-MEL-2) | GI50 (SK-MEL-5) | GI50 (SNB-19) | GI50 (UACC-257) | GI50 (SF-539) | GI50 (SNB-75) | GI50 (SR)
1 | Cc1ccc2c(=O)c(C(=O)NNC(=S)NC3CCCCC3)c[nH]c2n1 | > 100 µM (inactive) | 68.9 µM (inactive) | 68.1 µM (inactive) | 53.1 µM (inactive) | 30.6 µM (inactive) | 52.7 µM (inactive) | 31.6 µM (inactive) | 23.9 µM (inactive) | 71.8 µM (inactive) | 78.9 µM (inactive) | > 100 µM (inactive) | > 100 µM (inactive) | 56.8 µM (inactive) | 65.9 µM (inactive) | 33.7 µM (inactive) | > 100 µM (inactive) | > 100 µM (inactive) | – | – | –
2 | CC1C2CC(CC(=O)N2)C1(C)C (centres undefined) | > 100 µM (inactive) | > 100 µM (inactive) | > 100 µM (inactive) | > 100 µM (inactive) | > 100 µM (inactive) | > 100 µM (inactive) | > 100 µM (inactive) | > 100 µM (inactive) | > 100 µM (inactive) | > 100 µM (inactive) | > 100 µM (inactive) | > 100 µM (inactive) | > 100 µM (inactive) | – | > 100 µM (inactive) | > 100 µM (inactive) | > 100 µM (inactive) | > 100 µM (inactive) | > 100 µM (inactive) | –
3 | N#Cc1c(-c2ccccc2)cc(Nc2cccc(C(F)(F)F)c2)n2c1nc1ccccc12 | 1.54 µM (inactive) | 1.2 µM (inactive) | 1.77 µM (inactive) | 1.16 µM (inactive) | – | 1.71 µM (inactive) | 1.4 µM (inactive) | 0.687 µM (active) | 0.561 µM (active) | 0.912 µM (active) | 2.68 µM (inactive) | 1.99 µM (inactive) | 1.7 µM (inactive) | – | 0.548 µM (active) | – | 0.733 µM (active) | 2.22 µM (inactive) | 1.82 µM (inactive) | –
4 | O=C1C=Cc2cscc21 | 16.4 µM (inactive) | 46.5 µM (inactive) | > 100 µM (inactive) | 35.5 µM (inactive) | 31.9 µM (inactive) | 31.8 µM (inactive) | – | – | 21.5 µM (inactive) | 81.3 µM (inactive) | – | 16.6 µM (inactive) | 49.4 µM (inactive) | 79.1 µM (inactive) | 81.7 µM (inactive) | 78.2 µM (inactive) | > 100 µM (inactive) | > 100 µM (inactive) | 42.5 µM (inactive) | –
5 | O=C1c2cc3c(cc2CC12Cc1cc4c(cc1C2=O)CCC4)CCC3 | > 100 µM (inactive) | > 100 µM (inactive) | > 100 µM (inactive) | > 100 µM (inactive) | > 100 µM (inactive) | > 100 µM (inactive) | – | > 100 µM (inactive) | > 100 µM (inactive) | – | 48.3 µM (inactive) | 21.8 µM (inactive) | > 100 µM (inactive) | > 100 µM (inactive) | > 100 µM (inactive) | > 100 µM (inactive) | > 100 µM (inactive) | > 100 µM (inactive) | > 100 µM (inactive) | > 100 µM (inactive)
6 | CC(=O)C(CN(C(C)C)C(C)C)C(c1ccccc1)c1c(O)c2ccccc2oc1=O (centres undefined) | > 100 µM (inactive) | > 100 µM (inactive) | > 100 µM (inactive) | > 100 µM (inactive) | > 100 µM (inactive) | – | – | > 100 µM (inactive) | > 100 µM (inactive) | > 100 µM (inactive) | > 100 µM (inactive) | 60.1 µM (inactive) | > 100 µM (inactive) | > 100 µM (inactive) | > 100 µM (inactive) | > 100 µM (inactive) | > 100 µM (inactive) | > 100 µM (inactive) | 16.7 µM (inactive) | > 100 µM (inactive)
7 | COc1cccc2c1NC(=O)Cc1c-2[nH]c2ccccc12 | > 100 µM (inactive) | > 100 µM (inactive) | > 100 µM (inactive) | 47.6 µM (inactive) | 53.1 µM (inactive) | > 100 µM (inactive) | – | > 100 µM (inactive) | > 100 µM (inactive) | 98.2 µM (inactive) | > 100 µM (inactive) | > 100 µM (inactive) | > 100 µM (inactive) | > 100 µM (inactive) | 41.9 µM (inactive) | – | – | > 100 µM (inactive) | > 100 µM (inactive) | > 100 µM (inactive)
8 | Oc1ccc(CCc2cc(O)cc(O)c2)cc1 [DIHYDRORESVERATROL] | > 100 µM (inactive) | 50.5 µM (inactive) | > 100 µM (inactive) | > 100 µM (inactive) | 80.7 µM (inactive) | 23.7 µM (inactive) | – | 53.5 µM (inactive) | > 100 µM (inactive) | > 100 µM (inactive) | > 100 µM (inactive) | > 100 µM (inactive) | > 100 µM (inactive) | > 100 µM (inactive) | > 100 µM (inactive) | > 100 µM (inactive) | > 100 µM (inactive) | > 100 µM (inactive) | > 100 µM (inactive) | > 100 µM (inactive)
